The text below walks through data of patent US8008292B2, “Condensed benzamide compounds and inhibitors of vanilloid receptor subtype 1 (VR1) activity” (Japan Tobacco Inc., priority 2004, dated 2011).

What is called IC50 is the concentration that inhibits the measured activity by half. Read a high IC50 as lower potency.

T1 sequence (Q8NER1 whole entry): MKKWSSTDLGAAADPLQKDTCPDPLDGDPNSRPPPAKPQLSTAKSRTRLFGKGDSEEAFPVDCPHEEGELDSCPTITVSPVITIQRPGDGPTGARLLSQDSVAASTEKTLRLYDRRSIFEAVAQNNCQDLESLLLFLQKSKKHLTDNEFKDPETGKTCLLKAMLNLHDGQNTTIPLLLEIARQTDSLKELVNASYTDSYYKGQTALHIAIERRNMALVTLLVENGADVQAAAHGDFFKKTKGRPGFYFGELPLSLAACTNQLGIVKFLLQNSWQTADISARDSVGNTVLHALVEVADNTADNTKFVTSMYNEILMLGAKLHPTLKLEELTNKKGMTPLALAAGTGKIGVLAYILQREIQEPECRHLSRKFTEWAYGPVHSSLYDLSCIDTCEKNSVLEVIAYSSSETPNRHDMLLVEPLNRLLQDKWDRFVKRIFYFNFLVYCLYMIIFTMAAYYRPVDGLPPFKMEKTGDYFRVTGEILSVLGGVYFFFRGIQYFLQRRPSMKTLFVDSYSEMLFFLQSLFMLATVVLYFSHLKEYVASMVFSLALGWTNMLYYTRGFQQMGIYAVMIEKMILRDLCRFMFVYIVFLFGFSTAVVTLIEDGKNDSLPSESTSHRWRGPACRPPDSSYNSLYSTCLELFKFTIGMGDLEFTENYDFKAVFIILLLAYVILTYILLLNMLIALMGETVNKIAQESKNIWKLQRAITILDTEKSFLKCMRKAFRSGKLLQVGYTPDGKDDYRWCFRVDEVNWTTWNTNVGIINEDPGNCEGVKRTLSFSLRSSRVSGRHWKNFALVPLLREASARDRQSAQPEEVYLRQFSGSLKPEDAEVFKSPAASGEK

This assay addresses T1, human VR1 (Homo sapiens, UniProt Q8NER1).
T1 construct: expressed in transfected cells
The assay is described as follows: Inhibition of Ca2+ entry in cells caused by proton, in rat glioma (C6BU1) cells stably expressing human VR1 (Fura 2 fluorescence). The class given is cell-based. The following applies: inhibition of proton-induced Ca2+ entry. On the procedure: The assay for evaluation of VR1 inhibition by the inventive compounds will be described below. The assay was intended to evaluate in vitro inhibition of Ca^2+ entry in cells caused by proton, one of the VR1 agonists.
Rat glioma (C6BU1) cells stably expressing human VR1 were suspended in 20 mM MES buffer (at pH 6.8, contg. 20 mM 2-morpholinoethanesulfonate (referred to as MES hereinafter), 115 mM NaCl, 5 mM KCl, 1 mM MgCl2 and 14 mM D-glucose) to make a cell density of 1×10^6 cells/mL. A fluorescent dye, Fura 2-AMsolution (DojindoCorporate, Cat. No. 343-05401) was added to the suspension to make a 5 μM concentration thereof. Further, Pluronic F-127 (Wako Pure Chemical Industries, Ltd., Cat. No. P6866) was added to make a 0.1% content thereof. Then, the suspension was incubated at 37° C. for 30 min. The cells were harvested and washed three times with 20 mM MES buffer. The cells were suspended again to make a cell density of 5×10^5 cells/mL. A 500-μL portion of the suspension was taken with a cuvette (MC MEDICAL, INC., Cat. No. SSR3121), to which 10 μL of 20 mM MES buffer containing 250 mM CaCl2 was added to incorporate Ca^2+ into the cells. At the same time, 5 μL of a test compound solution (in a range of 100 μM to 10 nM in DMSO) was also added to provide a final concentration thereof in a range of 1 μM to 0.1 nM. Alternatively, 5 μL of DMSO was added as control to provide a final concentration of 1% DMSO. The suspension was set in an intracellular ionometer (CAF-110; JASCO) 10 min after those additions. The cells were stimulated with protons by addition of 60 μL of 20 mM MES buffer at pH 1.1 to the suspension to set its pH at 5.5. The activity of the test compound was determined as a difference between the minimum of fluorescence intensity before agonist stimulation and its maximum after the stimulation. The value of IC50 was derived from percentage of inhibition by the test compound compared with the control.
In the tables, the symbol “++” indicates an IC50 value less than 100 nM and the symbol “+” indicates an IC50 value of 100 nM to 1,000 nM inclusive.
The compound `CN(C)c1ccc(NC(=O)c2cccc3c2OCCN3c2ncccc2Cl)cc1C(F)(F)F` [Example 1-054] gave an IC50 of less than 100 nM.

For `CC(C)Oc1ccc(NC(=O)c2cccc3c2OCCN3c2ncccc2Cl)cc1C(F)(F)F` [Example 1-055], the IC50 is less than 100 nM.

With `COc1ccc(NC(=O)c2cccc3c2OCCN3c2ncccc2Cl)cc1C(F)(F)F` [Example 1-056], the IC50 is less than 100 nM.

The compound `CC(C)COc1ccc(NC(=O)c2cccc3c2OCCN3c2ncccc2Cl)cc1C(F)(F)F` [Example 1-057] came in with an IC50 of less than 100 nM.

`Cc1ccnc(N2CCOc3c(C(=O)Nc4ccc(C(C)(C)C)cc4)cccc32)c1` [Example 1-058, N-(4-tert-butylphenyl)-4-(4-methylpyridin-2-yl)-3,4-dihydro-2H-benzo[1,4]oxazine-8-carboxamide] registered an IC50 of 100 to 1000 nM.

Regarding `Cc1cccc(N2CCOc3c(C(=O)Nc4ccc(C(C)(C)C)cc4)cccc32)n1` [Example 1-059], the IC50 was 100 to 1000 nM.

`Cc1ccc(N2CCOc3c(C(=O)Nc4ccc(C(C)(C)C)cc4)cccc32)nc1` [Example 1-060] had an IC50 of less than 100 nM.

`CC(C)(C)c1ccc(NC(=O)c2cccc3c2OCCN3c2cccnc2)cc1` [Example 1-061] yielded an IC50 of 100 to 1000 nM.

Consider `Cc1ccc(N2CCOc3c(C(=O)Nc4ccc(C#N)cc4)cccc32)nc1` [Example 1-062], for which the 50% inhibitory concentration (IC50) was less than 100 nM.

For the compound `Cc1ccc(N2CCOc3c(C(=O)Nc4ccc(Cl)c(N)c4)cccc32)nc1` [Example 1-063], the IC50 is less than 100 nM.

`CCOC1CCN(c2ccc(NC(=O)c3cccc4c3OCCN4c3ccc(C)cn3)cc2F)CC1` [Example 1-068] had an IC50 of less than 100 nM.

In the case of `Cc1ccc(N2CCOc3c(C(=O)Nc4ccc(N5CCC(OC(C)C)CC5)c(F)c4)cccc32)nc1` [Example 1-069], the IC50 is less than 100 nM.

The compound `COC1CCCN(c2ccc(NC(=O)c3cccc4c3OCCN4c3ccc(C)cn3)cc2F)C1` (stereo not shown) [Example 1-070] showed an IC50 of less than 100 nM.

For `COCC1CCN(c2ccc(NC(=O)c3cccc4c3OCCN4c3ccc(C)cn3)cc2F)CC1` [Example 1-071], the IC50 was less than 100 nM.

In the case of `COC1CCN(c2ccc(NC(=O)c3cccc4c3OCCN4c3ccc(C)cn3)cc2F)C1` (stereo not shown) [Example 1-072], the IC50 was less than 100 nM.

For `COC(=O)c1cc(NC(=O)c2cccc3c2OCCN3c2ccc(C)cn2)ccc1OCC(C)C` [Example 1-073], the IC50 is less than 100 nM.

`Cc1ccc(N2CCOc3c(C(=O)Nc4ccc(OCC(C)C)c(C(N)=O)c4)cccc32)nc1` [Example 1-075] registered an IC50 of 100 to 1000 nM.

In turn, `CNC(=O)c1cc(NC(=O)c2cccc3c2OCCN3c2ccc(C)cn2)ccc1OCC(C)C` [Example 1-076] had a half-inhibitory concentration (IC50) of 100 to 1000 nM.

`Cc1ccc(N2CCOc3c(C(=O)Nc4ccc(OCC(C)C)c(C(=O)N(C)C)c4)cccc32)nc1` [Example 1-077] had an IC50 of 100 to 1000 nM.

`CC(=O)c1ccc(NC(=O)c2cccc3c2OCCN3c2ccc(C)cn2)cc1` [Example 1-078] displayed an IC50 of less than 100 nM.

In the case of `CC(=O)c1cc(NC(=O)c2cccc3c2OCCN3c2ccc(C)cn2)ccc1Cl` [Example 1-080], the IC50 was less than 100 nM.

Turning to `Cc1ccc(N2CCOc3c(C(=O)Nc4ccc(Cl)c(C(C)(C)C)c4)cccc32)nc1` [Example 1-081], the concentration for half-maximal inhibition (IC50) is less than 100 nM.

The compound `COC(C)(C)c1ccc(NC(=O)c2cccc3c2OCCN3c2ccc(C)cn2)cc1` [Example 1-082] returned an IC50 of less than 100 nM.

Turning to `COc1cc(NC(=O)c2cccc3c2OCCN3c2ccc(C)cn2)ccc1Cl` [Example 1-083], the IC50 was less than 100 nM.

For the compound `CCCOc1ccc(NC(=O)c2cccc3c2OCCN3c2ccc(C)cn2)cc1` [Example 1-084], the IC50 is less than 100 nM.

As for `CCCOc1ccc(NC(=O)c2cccc3c2OCCN3c2ccc(C)cn2)cc1F` [Example 1-085], the IC50 was less than 100 nM.

Turning to `CCOc1ccc(NC(=O)c2cccc3c2OCCN3c2ccc(C)cn2)cc1F` [Example 1-086], the IC50 is less than 100 nM.

The compound `CCOc1cc(NC(=O)c2cccc3c2OCCN3c2ccc(C)cn2)ccc1C` [Example 1-087] showed an IC50 of less than 100 nM.

`COCCOc1cc(NC(=O)c2cccc3c2OCCN3c2ccc(C)cn2)ccc1C` [Example 1-089] had an IC50 of less than 100 nM.

In turn, `COCC1CCCCN1c1ccc(NC(=O)c2cccc3c2OCCN3c2ccc(C)cn2)cc1F` (stereo not shown) [Example 1-090] registered an IC50 of less than 100 nM.

`Cc1ccc(N2CCOc3c(C(=O)Nc4ccc(Cl)cc4)cccc32)nc1` [Example 1-091] came in with an IC50 of less than 100 nM.

The compound `Cc1ccc(N2CCOc3c(C(=O)Nc4ccc(C)c(F)c4)cccc32)nc1` [Example 1-092] showed a half-maximal inhibitory concentration (IC50) of less than 100 nM.

In the case of `Cc1ccc(N2CCOc3c(C(=O)Nc4ccc(Cl)nc4)cccc32)nc1` [Example 1-093], the IC50 was 100 to 1000 nM.

In turn, `CCOc1ccc(NC(=O)c2cccc3c2OCCN3c2ncccc2Cl)cc1` [Example 1-094] gave an IC50 of less than 100 nM.

Consider `O=C(Nc1ccc(N2CCCCC2)c(F)c1)c1cccc2c1OCCN2c1ncccc1Cl` [Example 1-095], for which the IC50 is less than 100 nM.

`O=C(N[C@H]1CC[C@H](OC2CCCC2)CC1)c1cccc2c1OCCN2c1ncccc1Cl` [Example 1-098] registered an IC50 of 100 to 1000 nM.

On to `O=C(N[C@H]1CC[C@H](OC2CCCCC2)CC1)c1cccc2c1OCCN2c1ncccc1Cl` [Example 1-099], for which the IC50 was in the range of 100 to 1000 nM.

`O=C(Nc1ccc(C(F)(F)F)cc1)c1cccc2c1OCCN2c1ncccc1Cl` [Example 1-100] showed a half-inhibitory concentration (IC50) of less than 100 nM.

`COC1CCN(c2ccc(NC(=O)c3cccc4c3OCCN4c3ncccc3Cl)cc2F)CC1` [Example 1-101] showed an IC50 of less than 100 nM.

In turn, `CCOC1CCN(c2ccc(NC(=O)c3cccc4c3OCCN4c3ncccc3Cl)cc2F)CC1` [Example 1-102] came in with an IC50 of less than 100 nM.

`CC(C)OC1CCN(c2ccc(NC(=O)c3cccc4c3OCCN4c3ncccc3Cl)cc2F)CC1` [Example 1-103] had an IC50 of less than 100 nM.

Consider `CC(C)CNc1ccc(NC(=O)c2cccc3c2OCCN3c2ncccc2Cl)cc1F` [Example 1-104], for which the IC50 is less than 100 nM.

For `Cc1ccc(N2CCOc3c(C(=O)N[C@H]4CC[C@H](OC(C)C)CC4)cccc32)nc1` [Example 1-106], the IC50 lay within 100 to 1000 nM.

`Cc1ccc(N2CCOc3c(C(=O)N[C@H]4CC[C@H](OC5CCCCC5)CC4)cccc32)nc1` [Example 1-107] yielded an IC50 of less than 100 nM.

In the case of `Cc1ccc(N2CCOc3c(C(=O)N[C@H]4CC[C@H](OCC5CCCCC5)CC4)cccc32)nc1` [Example 1-119], the IC50 is less than 100 nM.

For `CCOc1ccc(NC(=O)c2cccc3c2OCCN3c2ccc(Cl)cn2)cc1` [Example 1-120], the IC50 is less than 100 nM.

The compound `O=C(Nc1ccc(Cl)cc1)c1cccc2c1OCCN2c1ccc(Cl)cn1` [Example 1-121] had an IC50 of less than 100 nM.

`COC1CCN(c2ccc(NC(=O)c3cccc4c3OCCN4c3ccc(Cl)cn3)cc2F)CC1` [Example 1-122] yielded an IC50 of less than 100 nM.

In the case of `O=C(Nc1ccc(C(F)(F)F)cc1)c1cccc2c1OCCN2c1ccc(Cl)cn1` [Example 1-123], the IC50 was less than 100 nM.

With `Cc1ccc(N2CCOc3c(C(=O)NCCc4ccccc4)cccc32)nc1` [Example 1-124], the IC50 is less than 100 nM.

`Cc1ccc(N2CCOc3c(C(=O)NCCc4ccc(Cl)cc4)cccc32)nc1` [Example 1-125]: the IC50 was less than 100 nM.

Regarding `Cc1ccc(N2CCOc3c(C(=O)NCCc4cccc(Cl)c4)cccc32)nc1` [Example 1-126], the IC50 is less than 100 nM.

Compound `Cc1ccc(N2CCOc3c(C(=O)NCCc4ccccc4Cl)cccc32)nc1` [Example 1-127] yielded an IC50 of less than 100 nM.

Consider `O=C(O)c1ccc(N2CCOc3c(C(=O)Nc4ccc(C(F)(F)F)cc4)cccc32)nc1` [Example 1-128], for which the IC50 lay in the range of 100 to 1000 nM.

The compound `CC(C)(O)c1cnc(N2CCOc3c(C(=O)Nc4ccc(C(F)(F)F)cc4)cccc32)c(Cl)c1` [Example 1-129] yielded an IC50 of less than 100 nM.

Compound `CC(O)c1cnc(N2CCOc3c(C(=O)Nc4ccc(C(F)(F)F)cc4)cccc32)c(Cl)c1` (stereo not shown) [Example 1-130] came in with a half-inhibitory concentration (IC50) of less than 100 nM.

With `O=C(O)c1cnc(N2CCOc3c(C(=O)Nc4ccc(C(F)(F)F)c(F)c4)cccc32)c(Cl)c1` [Example 1-131], the IC50 was 100 to 1000 nM.

Regarding `COC(=O)c1ccc(N2CCOc3c(C(=O)Nc4ccc(C(C)(C)C)cc4)cccc32)nc1` [Example 1-132], the IC50 lay in the range of 100 to 1000 nM.

The compound `CC(C)(C)c1ccc(NC(=O)c2cccc3c2OCCN3c2ccc(C(=O)O)cn2)cc1` [Example 1-133] returned an IC50 of 100 to 1000 nM.

On to `O=C(O)c1cnc(N2CCOc3c(C(=O)Nc4ccc(C(F)(F)F)cc4)cccc32)c(Cl)c1` [Example 1-136], for which the IC50 is less than 100 nM.

For the compound `CC(C)(C)c1ccc(NC(=O)c2cccc3c2OCCN3c2ccc([N+](=O)[O-])cn2)cc1` [Example 1-140], the IC50 is less than 100 nM.
